Experimental data taken from US20260297542A1, “HERBICIDE RESISTANT PLANTS” (SYNGENTA CROP PROTECTION AG, priority 2023, published 2026).
Numbering of substitutions follows the chain as printed.

Experiments:
Assay in all cases: E. coli hemG growth inhibition by herbicide, AtPPO1 variant
Type in all cases: cell-based
Conditions in all cases: read-out: percentage growth inhibition
AtPPO1 WT = target: T1, AtPPO1 WT (Arabidopsis thaliana, UniProt P55826)
T1 construct: expressed in transfected cells; host or cells: E. coli BL21(DE3) hemG (hemG replaced by CmR), pET24a plasmid
T1 sequence (P55826 1-537): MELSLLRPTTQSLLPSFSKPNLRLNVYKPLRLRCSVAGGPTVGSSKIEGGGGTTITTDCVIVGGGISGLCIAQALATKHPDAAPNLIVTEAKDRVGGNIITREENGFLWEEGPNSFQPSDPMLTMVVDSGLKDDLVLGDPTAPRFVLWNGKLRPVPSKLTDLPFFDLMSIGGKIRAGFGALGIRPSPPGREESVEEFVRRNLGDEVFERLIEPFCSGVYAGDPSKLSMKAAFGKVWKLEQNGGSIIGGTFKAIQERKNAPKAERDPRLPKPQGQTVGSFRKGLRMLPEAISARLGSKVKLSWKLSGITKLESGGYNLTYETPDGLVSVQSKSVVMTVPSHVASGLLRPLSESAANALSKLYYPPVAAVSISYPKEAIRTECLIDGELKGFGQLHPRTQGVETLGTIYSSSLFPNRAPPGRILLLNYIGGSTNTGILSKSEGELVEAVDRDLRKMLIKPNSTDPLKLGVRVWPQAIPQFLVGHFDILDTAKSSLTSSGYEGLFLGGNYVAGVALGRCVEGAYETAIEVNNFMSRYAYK
Summary of the method: (§1)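 AtPPO1 variants from a site-saturation library, codon-optimised and T7-driven in pET24a, were expressed in E. coli BL21(DE3) lacking hemG (hemG replaced by CmR). Growth in Terrific broth with 0.1 mM IPTG plus 6.25 ppm herbicide 0 or E, 0.78 ppm herbicide B, or DMSO was read as OD600 after 24 h at 37° C; inhibition was calculated against the DMSO culture.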

AtPPO1 C516Q = target: T2, AtPPO1 C516Q (Arabidopsis thaliana, UniProt P55826, C516Q)
T2 construct: expressed in transfected cells; host or cells: E. coli BL21(DE3) hemG, pET24a plasmid
T2 sequence (P55826 35-537 C516Q): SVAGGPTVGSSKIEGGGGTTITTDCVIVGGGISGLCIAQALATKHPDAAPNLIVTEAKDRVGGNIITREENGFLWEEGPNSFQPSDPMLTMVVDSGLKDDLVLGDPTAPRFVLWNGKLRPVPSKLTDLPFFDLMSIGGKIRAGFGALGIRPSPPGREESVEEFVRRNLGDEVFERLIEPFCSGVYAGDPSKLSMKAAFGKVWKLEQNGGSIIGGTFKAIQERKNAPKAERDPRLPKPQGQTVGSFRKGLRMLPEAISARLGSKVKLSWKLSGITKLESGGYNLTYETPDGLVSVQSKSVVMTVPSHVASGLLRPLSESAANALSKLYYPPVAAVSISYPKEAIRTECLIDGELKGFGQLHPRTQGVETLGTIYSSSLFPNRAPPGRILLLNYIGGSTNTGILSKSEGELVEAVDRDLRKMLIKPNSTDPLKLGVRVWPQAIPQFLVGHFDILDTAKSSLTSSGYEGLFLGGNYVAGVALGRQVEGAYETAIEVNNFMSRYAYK
Summary of the method: as §1

AtPPO1 K281C = target: T3, AtPPO1 K281C (Arabidopsis thaliana, UniProt P55826, K281C)
T3 construct: expressed in transfected cells; host or cells: E. coli BL21(DE3) hemG (hemG replaced by CmR), pET24a plasmid
T3 sequence (P55826 35-537 K281C): T2 sequence (P55826 35-537 C516Q) with K247C, Q482C
Summary of the method: as §1

AtPPO1 P413G = target: T4, AtPPO1 P413G (Arabidopsis thaliana, UniProt P55826, P413G)
T4 construct: expressed in transfected cells; host or cells: E. coli BL21(DE3) hemG (pET24a, T7 promoter)
T4 sequence (P55826 35-537 P413G): T2 sequence (P55826 35-537 C516Q) with P379G, Q482C
Summary of the method: as §1

CCOC(=O)[C@]1(C)CC(c2cc(-n3c(=O)n(C)c(=S)n(C)c3=O)c(F)cc2Cl)=NO1 [Herbicide D, ethyl (5S)-3-[2-chloro-5-(3,5-dimethyl-2,6-dioxo-4-thioxo-1,3,5-triazinan-1-yl)-4-fluoro-phenyl]-5-methyl-4H-isoxazole-5-carboxylate]
inhibition at 6.25 ppm (AtPPO1 WT): 58% | inhibition at 6.25 ppm (AtPPO1 C516Q): 28% | inhibition at 6.25 ppm (AtPPO1 K281C): 33% | inhibition at 6.25 ppm (AtPPO1 P413G): 32%

C#CCN1C(=O)C(F)(F)Oc2cc(F)c(-n3c(=O)n(C)c(=S)n(C)c3=O)cc21 [Herbicide B, trifludimoxazin]
inhibition at 0.78 ppm (AtPPO1 WT): 61% | inhibition at 0.78 ppm (AtPPO1 C516Q): 18% | inhibition at 0.78 ppm (AtPPO1 K281C): 35% | inhibition at 0.78 ppm (AtPPO1 P413G): 16%

CC(C)N(C)S(=O)(=O)NC(=O)c1cc(-n2c(=O)cc(C(F)(F)F)n(C)c2=O)c(F)cc1Cl [Herbicide E, saflufenacil]
inhibition at 6.25 ppm (AtPPO1 WT): 64% | inhibition at 6.25 ppm (AtPPO1 C516Q): 51% | inhibition at 6.25 ppm (AtPPO1 K281C): 54% | inhibition at 6.25 ppm (AtPPO1 P413G): 59%
